Reference: patent US11999701B1, “4,5-bis(4-chlorophenyl)-2-phenyl-1H-imidazol-1-yl as an antimicrobial compound” (KING FAISAL UNIVERSITY, priority 2023, dated 2024)

Tests used:
Format in all cases: cell-based
Aspergillus flavus = assay: Agar plate disc-diffusion, antifungal activity
Description: (§1) The agar plate disc-diffusion method was applied. […] The discs were then placed onto the surface of agar plates (nutrient agar for bacteria and Sabouraud's dextrose agar for fungi) seeded with the test organism. Each plate contained 15 mL of the agar medium, previously seeded with 0.2 mL of the broth culture of each organism pregrown for 18 hours. The plates were incubated at 37 °C for 48 h, and 72 h for fungi. The inhibition zones were measured in mm. Discs impregnated with DMSO were used as a control, and its inhibition zone was subtracted from the tested compound actual inhibition zone.

[1] = system: Chrysosporium keratinophilum; assay: Agar plate disc-diffusion, antifungal activity
Description: as §1

Bacillus cereus = assay: Agar plate disc-diffusion, antibacterial activity
Description: as §1

Pseudomonas aeruginosa = assay: Agar plate disc-diffusion, antibacterial activity
Description: as §1

Escherichia coli = assay: Agar plate disc-diffusion, antibacterial activity
Description: as §1

Staphylococcus aureus = assay: Agar plate disc-diffusion, antibacterial activity
Description: as §1

different microbes = assay: Antimicrobial activity, overall statement; settings: against different microbes (bacteria and fungi of Tables 1 and 2)
Description: The agar plate disc-diffusion method was applied. Sterilized filter papers (6 mm in diameter) were wetted with 10 μL of a solution of 4,5-bis(4-chlorophenyl)-2-phenyl-1H-imidazole (IV) to be tested, containing 10 mg/mL in DMSO, and the discs were allowed to air dry. The discs were then placed onto the surface of agar plates (nutrient agar for bacteria and Sabouraud's dextrose agar for fungi) seeded with the test organism. Each plate contained 15 mL of the agar medium, previously seeded with 0.2 mL of the broth culture of each organism pregrown for 18 hours. The plates were incubated at 37 °C for 48 h, and 72 h for fungi. The inhibition zones were measured in mm. Discs impregnated with DMSO were used as a control, and its inhibition zone was subtracted from the tested compound actual inhibition zone.

[2] = A = concentration of comp. = 10,000 μL
[3] = B = concentration of comp. = 30,000 μL
[4] = C = concentration of comp. = 50,000 μL

Work on `Clc1ccc(-c2nc(-c3ccccc3)[nH]c2-c2ccc(Cl)cc2)cc1` [IV, 4,5-bis(4-chlorophenyl)-2-phenyl-1H-imidazole] yielded an inhibition zone (Aspergillus flavus; [2]) of 22 mm, an inhibition zone (Aspergillus flavus; [3]) of 25 mm and an inhibition zone (Aspergillus flavus; [4]) of 32 mm. It also gave an inhibition zone [1, 2] of 26 mm, an inhibition zone [1, 3] of 28 mm and an inhibition zone [1, 4] of 46 mm. It also gave an inhibition zone (Bacillus cereus; [2]) of 22 mm, an inhibition zone (Bacillus cereus; [3]) of 24 mm and an inhibition zone (Bacillus cereus; [4]) of 36 mm. It also gave an inhibition zone (Pseudomonas aeruginosa; [2]) of 25 mm, an inhibition zone (Pseudomonas aeruginosa; [3]) of 28 mm and an inhibition zone (Pseudomonas aeruginosa; [4]) of 46 mm. The inhibition zone (Escherichia coli; [2]) was 27 mm, the inhibition zone (Escherichia coli; [3]) was 34 mm and the inhibition zone (Escherichia coli; [4]) was 52 mm. It also gave an inhibition zone (Staphylococcus aureus; [2]) of 20 mm, an inhibition zone (Staphylococcus aureus; [3]) of 24 mm and an inhibition zone (Staphylococcus aureus; [4]) of 33 mm. For the same compound, the antimicrobial activities (different microbes) was “excellent antimicrobial activities”.
